Measured values reported in US10457676B2, “Capsazepine analogs for the treatment of cancer and other proliferative diseases” (THE BOARD OF REGENTS OF THE UNIVERSITY OF TEXAS SYSTEM, priority 2014, dated 2019).

Key:
SCC4 xenografts = test: OSCC mouse xenograft model, intra-tumor injection; type: in vivo, athymic nude mice
Procedure: All studies were approved by the UTHSCSA Institutional Animal Care and Use Committee. Six week-old female athymic nude mice (Harlan, Indianapolis, Ind.) were used in a laminar air-flow cabinet under pathogen-free conditions. They were provided with a 12 h light/dark schedule at controlled temperature and humidity with food and water ad libitum. Mice were acclimated for one week prior to study initiation.
Mice were injected subcutaneously in the right flank with 2×10^6 SCC4 cells in 0.1 mL of sterile PBS. Four weeks post-inoculation, tumors grew to an average volume of 150 mm^3. Mice were stratified into two experimental groups (n=5 per group), which received the following treatments as intra-tumor injections: group A, vehicle control; group B, capsazepine or capsazepine derivative (analog) treatment. Treatments were repeated every other day for a total of 14 days.
Capsazepine and novel capsazepine analogs stock solutions (20 μg/μL, 100% Ethanol) were diluted to 5% Ethanol in sterile saline generating a final concentration of 1 μg/μL. SCC4 xenografts received intra-tumor injections of 40 μg CIDD24 or 40 μg capsazepine every other day (FIG. 4) for two weeks. In a second study SCC4 xenografts were injected with 80 μg CIDD24 or 80 μg CIDD111 every other day for two weeks (FIG. 5). Control xenografts received intra-tumor injections with vehicle control (5% Ethanol in sterile saline). Mice were monitored daily for tumor growth (using digital calipers), cachexia, and weight loss. Body temperature was monitored for 24 h following treatments. Tumor volumes were calculated by the elliptical formula: ½(Length×Width^2) (Jensen, et al., 2008).
Statistical analysis was performed using GraphPad Prism4 (San Diego, Calif.). Experiments were performed in triplicate and results are represented as means±SD except when indicated. Cytotoxicity assays of cell viability were analyzed by one-way ANOVA and Bonferroni's post hoc test (n=4). Statistical analyses of tumor growth were made using analysis of variance with repeated measures with Bonferroni's post hoc test (n=5). A p value less than 0.05 was considered statistically significant.

HSC3 cells = test: Cell viability with antioxidant N-acetyl-cysteine (reversal, ROS mechanism); type: cell-based, human; conditions: 10 μM, 24 hours
Procedure: OSCC cell lines, SCC4, SCC25, and HSC3 were derived from human primary tongue OSCC. SCC4 and SCC25 cells were obtained from ATCC (Rockville, Md.). HSC3 cells were kindly provided by Dr. Brian Schmidt (NYU) (Saghafi, et al., 2011). Breast cancer cells (MDA231), Prostate cancer cells (PC3), and Non-Small Cell Lung Cancer cells (H460) were obtained from ATCC (Rockville, Md.). Cells were maintained in DMEM (Gibco, Carlsbad, Calif.) containing 10% FBS at 37° C. in 5% CO2. Immortalized keratinocytes (OKF6-TERT2; Harvard Medical School Cell Culture Core Collection, Cambridge, Mass.) were used as control epithelial cells.
Cytotoxicity was assessed using the Cell Titer 96® Aqueous Non-Radioactive Cell Proliferation Assay (Promega, Madison, Wis.) according to manufacturer's protocol. Absorbance values of test groups were normalized against controls (n=4).
ROS levels in OSCC cell lines were examined by flow cytometry using 2,7-dichlorodihydrofluorescein diacetate (DCF-DA; Sigma-Aldrich, St. Louis, Mo.). Cells (3×10^5) were plated in 12-well plates and incubated for 30 min with DCF-DA at 37° C. then treated with 30 μM of the appropriate capsazepine derivative or capsazepine using phenol free media with and without 10 mM NAC. Treated cells were incubated for 1 h at 37° C., harvested, washed twice, and analyzed by FACS.

oral cancer tumors = conditions: direct injection into tumors; cited from earlier work
[1] = SCC4 tumors, 40 μg intra-tumor every other day for two weeks, n=5
[2] = SCC4 tumors, 80 μg every other day for two weeks, p<0.001

SMILES | reduction in tumor growth compared to vehicle control (SCC4 xenografts; [1]) | cell growth inhibition with 10 mM N-acetyl-cysteine added (HSC3 cells) | reduction in tumor growth compared to vehicle control (SCC4 xenografts; [2]) | other results
Oc1cc2c(cc1O)CN(C(=S)NCCc1ccc(Cl)cc1)CCC2 [capsazepine] | ~50% | reversed |  | tumor volume after administration (oral cancer tumors): reduction of tumor volume
Oc1cc2c(cc1O)C(c1ccccc1)N(C(=S)NCc1ccccc1)CC2 (centres unmarked) [CIDD111, N-benzyl-6,7-dihydroxy-1-phenyl-1,2,3,4-tetrahydroisoquinoline-2-carbothioamide] |  |  | significant reduction in tumor growth | efficacy compared with CIDD24 (SCC4 xenografts; SCC4 tumors, 80 μg every other day for two weeks, no significant difference in potency): slightly more effective than CIDD24
O=C(NCCc1ccc(Cl)cc1)N1CCc2cc(O)c(O)cc2C1 [CIDD25, N-[2-(4-chlorophenyl)ethyl]-6,7-dihydroxy-1,2,3,4-tetrahydroisoquinoline-2-carboxamide] | 50% |  |  | 
Oc1cc2c(cc1O)C(c1ccccc1)N(C(=S)NCCc1ccc(Cl)cc1Cl)CC2 (centres unmarked) [CIDD 118, N-[2-(2,4-dichlorophenyl)ethyl]-6,7-dihydroxy-1-phenyl-1,2,3,4-tetrahydroisoquinoline-2-carbothioamide] |  | reversed |  | 
Oc1cc2c(cc1O)C(c1ccccc1)N(C(=S)NCCc1ccc(Cl)cc1)CC2 (centres unmarked) [CIDD 99, N-[2-(4-chlorophenyl)ethyl]-6,7-dihydroxy-1-phenyl-1,2,3,4-tetrahydroisoquinoline-2-carbothioamide] |  | reversed |  | 
Oc1cc2c(cc1O)CN(C(=S)NCCc1ccc(Cl)cc1)CC2 [CIDD24, N-[2-(4-chlorophenyl)ethyl]-6,7-dihydroxy-1,2,3,4-tetrahydroisoquinoline-2-carbothioamide] | 80% |  | significant reduction in tumor growth | tumor volume % change, difference between CIDD 24 and capsazepine (SCC4 xenografts; SCC4 xenografts, 40 μg (1 μg/μl), 10 day period, #=p<0.05): statistically significant difference
